From article PMC9295539 (Antimicrobial Agents and Chemotherapy, 2022)
“Also recorded” adds a separate entry of the source. Like-named read-outs stand apart in the source and are kept apart here.

How the values were obtained:
[1] = test system: G. lamblia WB6 (assemblage A); test: G. lamblia WB6 cell growth inhibition assay; format: cell-based; settings: Giardia duodenalis; assemblage A; read-out: EC50 against G. lamblia strain WB6
[2] = test system: Giardia lamblia GS clone H7; test: G. lamblia GS clone H7 trophozoite growth, ATP-based bioluminescence assay (BacTiter-Glo), 1,536-well; format: cell-based; settings: Giardia duodenalis
Procedure: (§1) Compounds were screened at 5 μM with metronidazole (40 μM) as an inhibitor control and dimethyl sulfoxide (DMSO) as a neutral control. […] These primary hits were immediately assayed for reconfirmation and mammalian cytotoxicity against HEK293T cells in an 8-point dose-response format.
The primary screen was conducted at 5 μM. […] All source plates were 384-well acoustic, transfer-compatible plates with compounds prediluted in DMSO at either 2 mM or 10 mM. […] Primary screening was done with a single replicate, whereas dose-response testing was carried out in triplicate.
To prevent attachment to the bottle and tubing of the dispenser cassette, the bottle containing the culture was kept on ice throughout the dispensing process. […] The bags were heat sealed and the anaerobic generator was activated according to the manufacturer’s instructions. […] Luminescence was read on a ViewLux uHTS microplate imager (PerkinElmer) with medium-sensitivity luminescence at 30 s of exposure.
(§2) Relative luminescence unit (RLU) values were analyzed in Genedata Screener (v13.0-Standard). RLU values were normalized to neutral controls minus inhibitors (DMSO-treated wells minus metronidazole-treated wells). For single-point primary assay plates, an additional run-wise median correction was applied to reduce screen artifacts, whereas no corrections were applied to triplicate dose-response plates. For the mammalian cytotoxicity assays, RLU values were uploaded into Genedata Screener, and the data were normalized to those for DMSO-treated wells minus puromycin-treated wells.

[3] = HEK293T cytotoxicity counterscreen, luminescent ATP viability assay; settings: human, HEK293T cells
Procedure: as §1
(§3) Experimental details for the assays were described previously ([50]). […] Assays were performed as previously reported ([51]).
as §2

[4] = design: method as in doi:10.1016/j.jtho.2016.11.1668; settings: adults; >150 mg daily oral doses over 7 days; cited from earlier work
[5] = Mouse pharmacokinetics, oral gavage, plasma LC-MS/MS; format: in vivo; settings: for half-life: read-out: average half-life (t1/2); for plasma level: 1 mg/kg QD
[6] = test system: G. lamblia CBG99; settings: mice
Procedure: The method relies on a stable constitutive reporter, CBG99, that correlates with total parasite load.
In vitro reconfirmation and expanded tests against EGFR-TKIs using the G. lamblia CBG99 strain were performed as previously described ([11]). […] The PK studies were performed in groups of 3 mice per compound. […] All animal experiments were approved by the Institutional Animal Care and Use Committees at the University of Washington.

[7] = Allometric scaling of efficacious mouse doses to human-equivalent dose; settings: 150 mg human dose (2.6 to 1.9 mg/kg) versus predicted human efficacious dose
Procedure: Its chemical synthesis and safety profiles and a partial analysis of its pharmacokinetic properties have been described previously ([18], [43]). […] Given that the average adult weight worldwide ranges from 57.7 kg in Asia to 80.7 kg in North America ([46]), a 150 mg dose equates to 2.6 to 1.9 mg/kg. […]. This leaves a possible safety window of 4.6 to 13 times the efficacious dose, depending on the dose needed and the weight of the adult patient. Since the equivalent human efficacious dose (based on the murine efficacy data) is below the clinical trial threshold and the drug may not necessitate more than 7 daily doses, it could be speculated that all previously obtained good laboratory practices (GLP) toxicological data associated with the Phase I clinical trials remain relevant and may not need to be repeated. […] Reduced cost of development should have a direct impact on the cost of goods for the target population. This is certainly true for G. lamblia.

[8] = HepG2 cytotoxicity, resazurin-based viability assay; format: cell-based; settings: human, HepG2 cells; read-out: CC50 against HepG2 cells
Procedure: as §3

[9] = CRL-8155 cytotoxicity, resazurin-based viability assay; format: cell-based; settings: human, CRL-8155 lymphocytic cells; read-out: CC50 against CRL-8155 cells
Procedure: as §3

[10] = test system: metronidazole-resistant 713-M3 strain; test: Metronidazole-resistant G. lamblia 713-M3 cell growth inhibition assay; format: cell-based; settings: Giardia duodenalis, read-out: EC50 against G. lamblia strain 713-M3
[11] = Clinical evaluation of overall health of mice in PK and efficacy studies; settings: all mice used for in vivo PK and efficacy studies
[12] = mouse, single oral dose 5 mg/kg
[13] = mouse, single oral dose 20 mg/kg
[14] = mouse, single oral dose 50 mg/kg

C=CC(=O)N[C@@H]1CN(c2nc(Nc3cn(C)nc3OC)c3ncn(C)c3n2)C[C@H]1F [Mavelertinib, N-((3R,4R)-4-fluoro-1–(6-((3-methoxy-1-methyl-1H-pyrazol-4-yl)amino)-9-methyl-9H-purin-2-yl)pyrrolidine-3-yl)acrylamide]
EC50 [1]: 270 ± 170 nM | EC50 ([2]; 48 h, 8-point dose response, triplicate, read-out: 48-h Giardia GS clone H7 EC50): 2340 ± 80 nM | EC50 ([2]; Table 2, assemblage B, read-out: EC50 against G. lamblia strain GS clone 7): 2340 ± 80 nM | CC50 at 72 h [3]: > 25000 nM | most common adverse events [4]: diarrhea and skin toxicities | half-life ([5]; in vivo, mouse, single oral dose 5 mg/kg): 3.99 h | plasma trough levels ([5]; infected mice, all treatment groups, days 6 and 7 postinfection (24 h and 48 h after the first dose)): below the limit of quantitation | plasma level ([5]; mouse, 0.5 h postdose, one mouse): barely detectable | plasma level ([5]; mouse, all time points after 0.5 h): below the limit of detection | plasma level ([5]; mouse, all time points sampled (Fig. 4 legend)): barely detectable | time at which Cmax was observed (Tmax) ([5]; mouse, oral, in all cases (all doses)): 0.5 h | plasma concentration at 24 h postdose ([5]; mouse, single dose, all dosage groups): cleared from plasma; also recorded: below the detection limit | area under the curve (AUC) [5, 12]: 89 µmol·min/L | clearance [5, 12]: 0.015 L/min | area under the curve (AUC) [5, 13]: 300 µmol·min/L | clearance [5, 13]: 0.004 L/min | area under the curve (AUC) [5, 14]: 812 µmol·min/L | clearance [5, 14]: 0.0016 L/min | Cmax ([5]; plasma, mouse, single oral dose 5 mg/kg, read-out: maximum plasma concentration (Cmax)): 0.63 µM | half-life ([5]; plasma, mouse, single oral dose 20 mg/kg): 2.91 h | Cmax ([5]; plasma, mouse, single oral dose 20 mg/kg, read-out: maximum plasma concentration (Cmax)): 3.5 µM | half-life ([5]; plasma, mouse, single oral dose 50 mg/kg): 2.09 h | Cmax ([5]; plasma, mouse, single oral dose 50 mg/kg, read-out: average maximum plasma concentration (Cmax)): 9.3 µM | clearance of infection (luminescence signal) ([6]; 2.5 mg/kg QD for 2 days): one of four mice remained infected | clearance of infection (luminescence signal) ([6]; 5 mg/kg QD for 2 days, 5 mg/kg): cleared the infection below the background signal | clearance of infection (luminescence signal) ([6]; 5 mg/kg QD for 2 days, listed as mavelertinib, 5 mg/kg): absence of luminescence signal | clearance of infection (luminescence signal) ([6]; 20 mg/kg QD for 2 days, 20 mg/kg): cleared the infection below the background signal | clearance of infection (luminescence signal) ([6]; 20 mg/kg QD for 2 days, listed as mavelertinib, 20 mg/kg): absence of luminescence signal | clearance of infection (luminescence signal) ([6]; 50 mg/kg QD for 1 day, dose-response experiment, 50 mg/kg): cleared the infection below the background signal | clearance of infection (luminescence signal) ([6]; 50 mg/kg QD for 1 day, dose-response experiment, listed as mavelertinib, 50 mg/kg): absence of luminescence signal | clearance of infection ([6]; 50 mg/kg QD for 3 days, data not shown): appeared to clear the infection | clearance of infection ([6]; 50 mg/kg QD, 1- and 2-day dosing, remained clear a week after dosing): all treated mice were cleared of infection | parasite rebound after treatment ([6]; about 1 week after the last therapeutic dose): parasites did not rebound | possible safety window [7]: 4.6 to 13 times the efficacious dose | CC50 [8]: > 80000 nM | CC50 [9]: > 80000 nM | EC50 [10]: 70 ± 20 nM | observable toxicity [11]: no observable mavelertinib-induced toxicology potentials
